Measurements published in patent US10662203B2, “Pyrido[2,3-b]indole compounds for the treatment and prophylaxis of bacterial infection” (Hoffmann-La Roche Inc., priority 2017, dated 2020).
Values after ≈ are worked out from the molar mass of the structure shown. Like-named read-outs stand apart in the source and are kept apart here.

Assays:
[1] = Single dose PK study (SDPK) in female CD-1 mouse; type: in vivo; details: MOUSE IV; for clearance: female, CD-1, plasma, read-out: CL total
Experimental: Single Dose PK Study (SDPK) in Female CD-1 Mouse: The single dose PK in female CD-1 mouse was performed to assess compound's pharmacokinetic properties. One group of animals were dosed via bolus intravenous (IV) of the respective compound. Blood samples (approximately 30 μL) were collected via saphenous vein at 5 mins, 15 min, 30 min, 1 hr, 2 hr, 4 hr and 7 hr. For last time point (24 hr), samples were collected via cardiac puncture while the mouse was under anesthesia. Blood samples were placed into tubes containing EDTA-K2 anticoagulant (2 μL of 0.5M per tube) and centrifuged at 3000 rpm for 10 minutes at 4° C. within half an hour to separate plasma from the samples. Following centrifugation, plasma samples were stored in polypropylene tubes, quick frozen over dry ice and kept at −70±10° C. until LC/MS/MS analysis. The pharmacokinetic parameters were calculated using non-compartmental module of WinNonlin® Professional 6.4.

[2] = test system: K. pneumoniae (ATCC10031); assay: 50% growth inhibitory concentration (IC50) determination assay; type: cell-based; details: Klebsiella pneumoniae, Iso-Sensitest broth, 0.098 = detection limit
Procedure, shortened: (§1)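 Growth was tracked as optical density at 600 nm every 20 minutes for 16 h at 35±2° C, giving IC50 values. Inocula of ~5×10^5 CFU/mL in Iso-Sensitest broth faced two-fold compound dilutions spanning 50 to 0.097 μM final.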

A. baumannii (ATCC17978) = assay: as above; type: cell-based; details: Acinetobacter baumannii, ATCC17978, A. baumannii ATCC17978; Iso-Sensitest broth; 0.098 = detection limit
Procedure, shortened: as §1

S. aureus (ATCC29213) = assay: as above; type: cell-based; details: Staphylococcus aureus, Iso-Sensitest broth, 0.098 = detection limit
Procedure, shortened: as §1

[3] = Lyophilisation solubility assay (LYSA); type: physicochemical; details: phosphate buffer, pH 6.5, aqueous buffer, thermodynamic from solid, 0.05 M phosphate buffer, HPLC-UV
Procedure, shortened: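 Read-out is HPLC-UV of the filtered solution and its 1/10 dilution. The dried residue of a 10 mM DMSO stock was redissolved in 0.05 M pH 6.5 phosphate buffer, then stirred 1 h, shaken 2 h and held overnight. Run in duplicate.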

[4] = Cytotoxicity assay (HepG2, CellTiter-Blue cell viability); type: cell-based; details: human; HepG2 cells, 3 days treatment; "*": the detection limit; read-out: CC50
Procedure, shortened: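 HepG2 cells (1.2×10^4 per well) exposed to compounds for 3 days; viability then read by CellTiter-Blue fluorescence after 3 h at 37 °C. CC50 from four-parameter logistic fit.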

SMILES	AUC total ([1]; 1.0 mg/kg-Solution)	clearance ([1]; 1.0 mg/kg-Solution)	IC50 [2]	IC50 (A. baumannii (ATCC17978))	IC50 (S. aureus (ATCC29213))	solubility thermodynamic [3]	CC50 at 3 days [4]	AUC total ([1]; 0.7 mg/kg-Solution)	clearance ([1]; 0.7 mg/kg-Solution)
CNc1cc(F)c(F)c2c1[nH]c1ncc(-c3cnc4c(c3)c(=O)c(C(=O)O)cn4C)c(N3CC4[C@@H](C3)OCCN4C)c12 (stereo partly drawn) [Example 1.241]	196.3 ng·h/mL	84.3 mL/min/kg	< 0.098 µM	0.095 µM	< 0.098 µM	–	–	–	–
CCn1cc(C(=O)O)c(=O)c2cc(-c3cnc4[nH]c5c(NC)cc(F)c(F)c5c4c3N3CC4CC3CO4)cnc21 (stereo not drawn) [Example 1.05]	162.7 ng·h/mL	100 mL/min/kg	< 0.098 µM	0.725 µM	< 0.098 µM	–	–	–	–
CNc1cc(F)c(F)c2c1[nH]c1ncc(-c3cnc4c(c3)c(=O)c(C(=O)O)cn4C)c(N3C[C@H]4CCN(C)[C@H]4C3)c12 [Example 3.08A]	190.5 ng·h/mL	86.7 mL/min/kg	< 0.098 µM	0.049 µM	< 0.098 µM	119 µg/mL (≈ 213 µM)	–	–	–
CNc1cc(F)c(F)c2c1[nH]c1ncc(-c3cnc4c(c3)c(=O)c(C(=O)O)cn4C)c(N3CC[C@H]4CCN(C)C4C3)c12 (stereo partly drawn) [Example 1.196]	177.4 ng·h/mL	98.4 mL/min/kg	< 0.098 µM	0.102 µM	< 0.098 µM	25 µg/mL (≈ 43.6 µM)	–	–	–
CNc1cc(F)c(F)c2c1[nH]c1ncc(-c3cnc4c(c3)c(=O)c(C(=O)O)cn4C)c(N3CC4[C@H](CCN4C)C3)c12 (stereo partly drawn) [Example 1.192]	235.0 ng·h/mL	69.6 mL/min/kg	< 0.098 µM	0.105 µM	< 0.098 µM	58 µg/mL (≈ 104 µM)	–	–	–
CNc1cc(F)c(F)c2c1[nH]c1ncc(-c3cnc4c(c3)c(=O)c(C(=O)O)cn4C)c(N3CCC(O)CC3)c12 [Example 1.43]	235.1 ng·h/mL	66.3 mL/min/kg	< 0.098 µM	0.663 µM	< 0.098 µM	–	39.3 µM	–	–
CNc1cc(F)c(F)c2c1[nH]c1ncc(-c3cnc4c(c3)c(=O)c(C(=O)O)cn4C)c(N3CCC4(CN(C)CCO4)C3)c12 (stereo not drawn) [Example 1.202]	167.5 ng·h/mL	98.1 mL/min/kg	< 0.098 µM	0.16 µM	< 0.098 µM	–	–	–	–
CNc1cc(F)c(F)c2c1[nH]c1ncc(-c3cnc4c(c3)c(=O)c(C(=O)O)cn4C)c(N3CC(N(C)C)C4(CC4)C3)c12 (stereo not drawn) [Example 1.207]	188.3 ng·h/mL	85.7 mL/min/kg	< 0.098 µM	0.203 µM	0.101 µM	73 µg/mL (≈ 127 µM)	–	–	–
CNc1c(F)c(F)cc2c1[nH]c1ncc(-c3cnc4c(c3)c(=O)c(C(=O)O)cn4C3CCNC3)c(N(C)C)c12 (stereo not drawn) [Example 1.55]	165.9 ng·h/mL	98.7 mL/min/kg	–	0.334 µM	0.101 µM	–	49.8 µM	–	–
CNc1cc(F)c(F)c2c1[nH]c1ncc(-c3cnc4c(c3)c(=O)c(C(=O)O)cn4C)c(N3CC[C@H](N(C)C)C3)c12 [Example 1.254]	–	–	< 0.098 µM	0.164 µM	< 0.098 µM	23 µg/mL (≈ 42 µM)	36.1 µM	–	–
CNc1cc(F)c(F)c2c1[nH]c1ncc(-c3cnc4c(c3)c(=O)c(C(=O)O)cn4CCN(C)C)c(N(C)C)c12 [Example 1.22]	179.9 ng·h/mL	91.3 mL/min/kg	< 0.098 µM	0.118 µM	< 0.098 µM	–	–	–	–
CNc1cc(F)c(F)c2c1[nH]c1ncc(-c3cnc4c(c3)c(=O)c(C(=O)O)cn4C)c(N3CCOC(CN(C)C)C3)c12 (stereo not drawn) [Example 1.61]	–	–	< 0.098 µM	0.817 µM	0.139 µM	600 µg/mL (≈ 1040 µM)	> 100 µM	–	–
CNc1cc(F)cc2c1[nH]c1ncc(-c3cnc4c(c3)c(=O)c(C(=O)O)cn4NC)c(N3CCOCC3)c12 [Example 1.52]	305.8 ng·h/mL	57.4 mL/min/kg	< 0.098 µM	0.233 µM	< 0.098 µM	–	–	–	–
CNc1cc(F)c(F)c2c1[nH]c1ncc(-c3cnc4c(c3)c(=O)c(C(=O)O)cn4NC)c(N3CC4[C@H](CCN4C)C3)c12 (stereo partly drawn) [Example 1.193]	–	–	< 0.098 µM	0.096 µM	< 0.098 µM	16 µg/mL (≈ 27.8 µM)	> 100 µM	–	–
CNc1cc(F)c(F)c2c1[nH]c1ncc(-c3cnc4c(c3)c(=O)c(C(=O)O)cn4CC(N)C(C)C)c(N3CCOCC3)c12 (stereo not drawn) [Example 1.57]	–	–	–	0.198 µM	< 0.098 µM	–	35.9 µM	190.8 ng·h/mL	84.6 mL/min/kg
CNc1cc(F)c(F)c2c1[nH]c1ncc(-c3cnc4c(c3)c(=O)c(C(=O)O)cn4C)c(N3CCCC3CN(C)C)c12 (stereo not drawn) [Example 1.12]	–	–	< 0.098 µM	0.294 µM	0.11 µM	321 µg/mL (≈ 572 µM)	39.2 µM	–	–
CCCN(C)c1c(-c2cnc3c(c2)c(=O)c(C(=O)O)cn3CC)cnc2[nH]c3c(NC)cc(F)c(F)c3c12 [Example 1.07]	–	–	–	–	–	–	–	260.7 ng·h/mL	45.8 mL/min/kg
CNc1cc(F)cc2c1[nH]c1ncc(-c3cnc4c(c3)c(=O)c(C(=O)O)cn4C)c(N3CC[C@@H]4C(CCN4C)C3)c12 (stereo partly drawn) [Example 1.188]	–	–	< 0.098 µM	0.307 µM	0.232 µM	20 µg/mL (≈ 36 µM)	51.6 µM	–	–
CNc1cc(F)cc2c1[nH]c1ncc(-c3cnc4c(c3)c(=O)c(C(=O)O)cn4C)c(N3CCCC(CN(C)C)C3)c12 (stereo not drawn) [Example 1.94]	–	–	< 0.098 µM	0.155 µM	< 0.098 µM	301 µg/mL (≈ 540 µM)	38.7 µM	–	–
CNc1cc(F)c(F)c2c1[nH]c1ncc(-c3cnc4c(c3)c(=O)c(C(=O)O)cn4C)c(N3CCC[C@@H](N(C)C)C3)c12 [Example 3.06A]	–	–	< 0.098 µM	0.102 µM	< 0.098 µM	66 µg/mL (≈ 118 µM)	52.5 µM	–	–
CNc1cc(F)c(F)c2c1[nH]c1ncc(-c3cnc4c(c3)c(=O)c(C(=O)O)cn4C)c(N3CCC4(CCCN4C)CC3)c12 [Example 1.230]	–	–	< 0.098 µM	0.376 µM	0.099 µM	19 µg/mL (≈ 32.3 µM)	> 100 µM	–	–
CNc1cc(F)c(F)c2c1[nH]c1ncc(-c3cnc4c(c3)c(=O)c(C(=O)O)cn4CC(C)(C)N)c(N3CCOCC3)c12 [Example 1.38]	–	–	< 0.098 µM	0.883 µM	0.181 µM	15 µg/mL (≈ 26 µM)	> 100 µM	–	–
[2H]C([2H])([2H])Nc1cc(F)c(F)c2c1[nH]c1ncc(-c3cnc4c(c3)c(=O)c(C(=O)O)cn4C)c(N3CCC[C@H]3CN(C)C)c12 [Example 1.161]	–	–	< 0.098 µM	0.202 µM	0.155 µM	> 830 µg/mL	> 100 µM	–	–
